Holding throughout (experiment): KinomeScan profiling
Common to all, as to assay type: binding

The target of one assay is EGFR(E746-A750del) (Homo sapiens, UniProt P00533, DEL746-750). To be noted: read-out: % control. In outline:
(§1)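 At 1 μM in DMSO, compounds are run through a broad 468-member kinase panel. The luminescent read-out is normalised so that vehicle gives 100% and a positive control gives 0%; any kinase falling below 35% is treated as a target.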

In the next assay the target is T1, EPHA1 (Homo sapiens, UniProt P21709).
T1 sequence (P21709 26-976): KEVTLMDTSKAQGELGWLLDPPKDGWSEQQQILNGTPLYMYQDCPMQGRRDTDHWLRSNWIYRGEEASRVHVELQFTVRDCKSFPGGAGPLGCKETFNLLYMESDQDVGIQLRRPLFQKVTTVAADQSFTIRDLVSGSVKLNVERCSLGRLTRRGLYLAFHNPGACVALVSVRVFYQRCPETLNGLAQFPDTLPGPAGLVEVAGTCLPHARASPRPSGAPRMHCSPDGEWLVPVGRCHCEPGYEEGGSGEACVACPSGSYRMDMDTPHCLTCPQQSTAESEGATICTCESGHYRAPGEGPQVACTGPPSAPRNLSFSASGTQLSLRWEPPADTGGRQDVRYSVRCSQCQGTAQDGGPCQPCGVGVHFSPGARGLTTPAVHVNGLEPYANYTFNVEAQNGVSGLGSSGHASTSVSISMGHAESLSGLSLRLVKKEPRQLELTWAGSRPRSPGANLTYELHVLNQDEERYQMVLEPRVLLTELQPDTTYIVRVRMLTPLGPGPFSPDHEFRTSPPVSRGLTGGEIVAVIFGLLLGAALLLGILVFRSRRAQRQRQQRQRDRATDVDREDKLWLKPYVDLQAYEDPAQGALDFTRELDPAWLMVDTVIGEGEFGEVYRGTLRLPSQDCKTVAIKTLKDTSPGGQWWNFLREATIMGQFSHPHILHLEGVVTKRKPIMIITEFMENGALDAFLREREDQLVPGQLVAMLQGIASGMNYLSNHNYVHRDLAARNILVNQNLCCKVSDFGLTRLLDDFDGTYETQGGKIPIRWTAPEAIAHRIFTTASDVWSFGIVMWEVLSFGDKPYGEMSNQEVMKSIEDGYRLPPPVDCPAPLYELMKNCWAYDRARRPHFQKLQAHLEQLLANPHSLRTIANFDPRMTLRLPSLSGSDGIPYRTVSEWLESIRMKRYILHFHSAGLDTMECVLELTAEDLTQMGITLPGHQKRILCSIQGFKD
The following applies: EPHA1, 1 μM; read-out: % control. In a few lines: as §1

Another assay addresses LIMK1 (Homo sapiens, UniProt P53667). To be noted: LIMK1, 1 μM; read-out: % control. In a few lines:
as §1

A further assay has as its target PAK1 (Homo sapiens, UniProt Q13153). To be noted: PAK1, 1 μM; read-out: % control. In outline:
as §1

The next assay addresses T2, PIP5K1A (Homo sapiens, UniProt Q99755).
T2 construct: purchased KinomeScan® (panel service)
The following applies: read-out: % control. In outline: as §1

The target of a further assay is T3, PRKG1 (Homo sapiens, UniProt Q13976).
T3 sequence (Q13976 1-671): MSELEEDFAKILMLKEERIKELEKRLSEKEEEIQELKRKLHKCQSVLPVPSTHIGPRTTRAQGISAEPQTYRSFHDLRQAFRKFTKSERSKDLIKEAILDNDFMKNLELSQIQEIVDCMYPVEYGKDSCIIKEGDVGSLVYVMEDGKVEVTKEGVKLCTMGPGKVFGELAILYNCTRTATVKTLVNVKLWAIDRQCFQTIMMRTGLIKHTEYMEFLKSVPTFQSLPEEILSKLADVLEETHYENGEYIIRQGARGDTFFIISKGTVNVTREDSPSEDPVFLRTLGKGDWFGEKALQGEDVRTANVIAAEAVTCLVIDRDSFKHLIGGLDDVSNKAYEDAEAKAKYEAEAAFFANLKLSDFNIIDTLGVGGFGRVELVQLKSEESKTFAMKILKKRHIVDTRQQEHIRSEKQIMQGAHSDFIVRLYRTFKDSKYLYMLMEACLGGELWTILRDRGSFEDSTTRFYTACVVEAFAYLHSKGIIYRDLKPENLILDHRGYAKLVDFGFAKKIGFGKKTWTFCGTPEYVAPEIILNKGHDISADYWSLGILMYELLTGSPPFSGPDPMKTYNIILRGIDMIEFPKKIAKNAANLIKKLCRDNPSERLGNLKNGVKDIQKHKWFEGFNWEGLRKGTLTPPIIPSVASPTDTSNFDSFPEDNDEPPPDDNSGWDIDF
To be noted: PRKG1, 1 μM; read-out: % control. In a few lines: as §1

The target in a further assay is T4, SIK (Homo sapiens, UniProt P57059).
T4 construct: purchased KinomeScan® (panel service)
T4 sequence (P57059 whole entry): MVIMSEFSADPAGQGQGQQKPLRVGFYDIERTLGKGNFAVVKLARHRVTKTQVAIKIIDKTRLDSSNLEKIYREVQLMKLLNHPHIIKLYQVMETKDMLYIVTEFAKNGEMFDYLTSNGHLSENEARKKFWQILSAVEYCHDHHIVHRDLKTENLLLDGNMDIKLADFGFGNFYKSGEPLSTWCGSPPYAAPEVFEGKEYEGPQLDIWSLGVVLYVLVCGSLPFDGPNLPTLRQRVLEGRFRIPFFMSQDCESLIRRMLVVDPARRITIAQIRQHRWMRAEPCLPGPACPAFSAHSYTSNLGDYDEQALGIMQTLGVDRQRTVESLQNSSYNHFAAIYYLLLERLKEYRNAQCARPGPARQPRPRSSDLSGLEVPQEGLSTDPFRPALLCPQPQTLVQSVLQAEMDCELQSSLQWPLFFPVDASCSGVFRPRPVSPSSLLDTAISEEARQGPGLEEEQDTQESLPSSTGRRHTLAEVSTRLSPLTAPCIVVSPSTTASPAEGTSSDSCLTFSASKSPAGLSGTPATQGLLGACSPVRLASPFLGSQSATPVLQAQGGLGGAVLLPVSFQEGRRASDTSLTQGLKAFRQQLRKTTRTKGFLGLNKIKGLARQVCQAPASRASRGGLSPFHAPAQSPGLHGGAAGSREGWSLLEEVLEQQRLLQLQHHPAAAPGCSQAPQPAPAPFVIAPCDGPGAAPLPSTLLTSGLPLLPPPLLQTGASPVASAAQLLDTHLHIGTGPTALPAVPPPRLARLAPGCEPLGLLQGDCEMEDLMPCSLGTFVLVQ
To be noted: read-out: % control. In a few lines:
as §1

The target in a further assay is T5, STK16 (Homo sapiens, UniProt O75716).
T5 construct: purchased KinomeScan® (panel service)
T5 sequence (O75716 whole entry): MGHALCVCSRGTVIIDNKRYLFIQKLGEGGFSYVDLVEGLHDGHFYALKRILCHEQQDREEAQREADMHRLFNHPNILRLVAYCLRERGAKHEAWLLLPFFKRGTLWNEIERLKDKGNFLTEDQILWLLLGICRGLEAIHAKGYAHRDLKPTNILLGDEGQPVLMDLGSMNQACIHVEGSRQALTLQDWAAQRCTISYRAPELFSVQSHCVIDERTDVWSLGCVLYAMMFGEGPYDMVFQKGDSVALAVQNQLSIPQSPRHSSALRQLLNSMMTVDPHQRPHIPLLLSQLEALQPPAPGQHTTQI
To be noted: STK16, 1 μM; read-out: % control. In outline: as §1

In the next assay the target is T6, STK35 (Homo sapiens, UniProt Q8TDR2).
T6 construct: purchased KinomeScan® (panel service)
T6 sequence (Q8TDR2 whole entry): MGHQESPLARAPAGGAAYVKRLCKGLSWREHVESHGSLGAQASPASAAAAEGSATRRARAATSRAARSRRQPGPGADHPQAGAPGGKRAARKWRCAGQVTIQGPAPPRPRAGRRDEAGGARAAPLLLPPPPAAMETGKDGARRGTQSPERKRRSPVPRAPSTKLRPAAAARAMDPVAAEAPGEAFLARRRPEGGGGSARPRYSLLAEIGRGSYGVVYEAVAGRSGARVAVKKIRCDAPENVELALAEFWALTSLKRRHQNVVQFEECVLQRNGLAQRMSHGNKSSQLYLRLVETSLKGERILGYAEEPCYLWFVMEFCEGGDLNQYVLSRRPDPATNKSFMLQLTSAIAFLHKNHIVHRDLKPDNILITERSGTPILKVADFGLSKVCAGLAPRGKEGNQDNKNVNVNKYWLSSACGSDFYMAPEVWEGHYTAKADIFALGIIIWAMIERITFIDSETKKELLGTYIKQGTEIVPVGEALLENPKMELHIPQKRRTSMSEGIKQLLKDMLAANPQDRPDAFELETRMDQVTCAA
To be noted: STK35, 1 μM; read-out: % control. In a few lines: as §1

The next assay deals with WEE1 (Homo sapiens, UniProt P30291). To be noted: WEE1, 1 μM; read-out: % control. In outline: as §1
WEE1, sequence (P30291 whole entry): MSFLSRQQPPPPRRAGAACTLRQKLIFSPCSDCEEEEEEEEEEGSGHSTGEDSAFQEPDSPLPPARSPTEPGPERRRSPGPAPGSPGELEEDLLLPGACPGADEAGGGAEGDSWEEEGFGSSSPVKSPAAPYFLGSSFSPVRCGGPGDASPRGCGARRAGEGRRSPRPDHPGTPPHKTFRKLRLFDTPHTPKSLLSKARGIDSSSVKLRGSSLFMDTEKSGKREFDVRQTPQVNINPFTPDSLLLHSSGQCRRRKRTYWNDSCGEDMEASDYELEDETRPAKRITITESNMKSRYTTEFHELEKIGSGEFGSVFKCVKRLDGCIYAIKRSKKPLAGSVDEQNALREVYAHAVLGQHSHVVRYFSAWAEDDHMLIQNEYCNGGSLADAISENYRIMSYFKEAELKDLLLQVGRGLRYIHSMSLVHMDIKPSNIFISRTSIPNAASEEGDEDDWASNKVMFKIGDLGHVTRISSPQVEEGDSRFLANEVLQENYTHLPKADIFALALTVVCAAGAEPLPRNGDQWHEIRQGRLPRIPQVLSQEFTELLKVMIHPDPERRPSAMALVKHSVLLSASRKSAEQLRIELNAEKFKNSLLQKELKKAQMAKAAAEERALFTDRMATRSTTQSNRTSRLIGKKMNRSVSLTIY

T2 sequence (Q99755 whole entry): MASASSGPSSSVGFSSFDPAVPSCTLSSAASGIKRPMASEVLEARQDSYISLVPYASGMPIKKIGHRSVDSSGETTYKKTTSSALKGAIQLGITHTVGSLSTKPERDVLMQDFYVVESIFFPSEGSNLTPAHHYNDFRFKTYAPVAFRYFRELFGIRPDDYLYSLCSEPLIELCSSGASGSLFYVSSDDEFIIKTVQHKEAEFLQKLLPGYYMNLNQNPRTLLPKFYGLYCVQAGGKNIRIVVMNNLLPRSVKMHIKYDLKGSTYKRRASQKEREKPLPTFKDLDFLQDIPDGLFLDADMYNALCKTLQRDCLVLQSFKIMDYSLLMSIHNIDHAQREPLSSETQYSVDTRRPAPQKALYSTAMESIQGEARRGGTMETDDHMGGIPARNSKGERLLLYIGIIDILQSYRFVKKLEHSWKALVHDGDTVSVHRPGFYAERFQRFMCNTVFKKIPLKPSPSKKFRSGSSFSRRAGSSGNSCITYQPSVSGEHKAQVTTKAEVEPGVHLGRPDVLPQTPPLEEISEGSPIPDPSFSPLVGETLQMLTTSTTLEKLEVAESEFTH
PAK1, sequence (Q13153 whole entry): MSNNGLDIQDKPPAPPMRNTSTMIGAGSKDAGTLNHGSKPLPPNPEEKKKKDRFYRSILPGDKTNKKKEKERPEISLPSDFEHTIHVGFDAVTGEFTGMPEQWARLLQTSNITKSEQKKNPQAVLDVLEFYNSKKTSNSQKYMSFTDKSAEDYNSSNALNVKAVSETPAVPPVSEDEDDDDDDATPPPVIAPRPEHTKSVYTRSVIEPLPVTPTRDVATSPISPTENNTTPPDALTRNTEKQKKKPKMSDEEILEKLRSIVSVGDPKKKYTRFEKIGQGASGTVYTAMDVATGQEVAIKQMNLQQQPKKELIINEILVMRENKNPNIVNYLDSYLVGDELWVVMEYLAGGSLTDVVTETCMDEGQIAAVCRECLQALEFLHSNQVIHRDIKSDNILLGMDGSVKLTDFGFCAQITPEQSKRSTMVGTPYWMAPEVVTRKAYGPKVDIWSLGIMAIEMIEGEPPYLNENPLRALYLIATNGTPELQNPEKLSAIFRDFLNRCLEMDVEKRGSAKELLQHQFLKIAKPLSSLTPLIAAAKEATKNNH
LIMK1, sequence (P53667 whole entry): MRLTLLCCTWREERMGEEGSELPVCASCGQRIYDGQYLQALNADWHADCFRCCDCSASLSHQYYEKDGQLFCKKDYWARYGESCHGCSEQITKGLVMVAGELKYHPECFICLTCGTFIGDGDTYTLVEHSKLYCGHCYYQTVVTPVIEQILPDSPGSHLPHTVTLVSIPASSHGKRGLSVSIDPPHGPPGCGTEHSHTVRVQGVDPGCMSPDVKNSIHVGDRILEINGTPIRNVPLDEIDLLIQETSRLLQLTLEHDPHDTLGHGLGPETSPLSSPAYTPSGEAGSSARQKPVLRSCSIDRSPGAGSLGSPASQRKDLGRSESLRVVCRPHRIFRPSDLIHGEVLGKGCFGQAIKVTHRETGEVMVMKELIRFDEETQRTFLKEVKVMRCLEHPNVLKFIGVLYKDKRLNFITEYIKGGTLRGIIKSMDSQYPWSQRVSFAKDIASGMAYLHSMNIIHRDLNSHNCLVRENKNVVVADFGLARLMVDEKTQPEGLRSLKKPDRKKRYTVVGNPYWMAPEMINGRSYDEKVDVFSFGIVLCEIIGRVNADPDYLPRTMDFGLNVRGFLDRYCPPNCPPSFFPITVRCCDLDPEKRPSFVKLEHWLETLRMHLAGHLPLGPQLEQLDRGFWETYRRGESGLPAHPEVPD

With `CNc1c(-c2ccc(C(=O)N3CCC(N4CCOCC4)CC3)cc2)cnc2[nH]cc(Cl)c12` [Compound 96, (4-(3-chloro-4-(methylamino)-1H-pyrrolo[2,3-b]pyridin-5-yl)phenyl)(4-morpholinopiperidin-1-yl)methanone], the remaining binding at 1 µM at EGFR(E746-A750del) is 93%; at EPHA1, 81%; on LIMK1, 100%; at PAK1, 99%; at PIP5K1A it was 16%; at PRKG1, 100%. Besides, the remaining binding at 1 µM at SIK was 87%; at STK16 it was 2%; at STK35, 50%; on WEE1 it was 88%.
As for `O=C(c1ccc(-c2cnc3[nH]cc(Cl)c3c2NC2CCCC2)cc1)N1CCC(N2CCOCC2)CC1` [Compound 101, (4-(3-chloro-4-(cyclopentylamino)-1H-pyrrolo[2,3-b]pyridin-5-yl)phenyl)(4-morpholinopiperidin-1-yl)methanone], the remaining binding at 1 µM at EGFR(E746-A750del) was 97%; on EPHA1, 76%; on LIMK1, 76%; on PAK1, 100%; on PIP5K1A it was 12%; at PRKG1, 89%. The remaining binding at 1 µM came out at 100% on SIK, 13% at STK16, 99% at STK35 and 100% on WEE1.
On to `CNc1c(-c2cnn([C@H]3CCN(C(C)=O)C[C@@H]3F)c2)cnc2[nH]cc(Cl)c12` [Compound 77, 1-((3S,4S)-4-(4-(3-chloro-4-(methylamino)-1H-pyrrolo[2,3-b]pyridin-5-yl)-1H-pyrazol-1-yl)-3-fluoropiperidin-1-yl)ethan-1-one], for which the remaining binding at 1 µM on EGFR(E746-A750del) is 100%; at EPHA1 it was 83%; at LIMK1, 100%; on PAK1, 99%; at PIP5K1A it was 7.7%; on PRKG1, 100%. In addition, the remaining binding at 1 µM is 94% at SIK, 2.9% on STK16, 63% at STK35 and 97% on WEE1.

These data come from US12275731B2, “Azaindole inhibitors of wild-type and mutant forms of LRRK2” (DANA-FARBER CANCER INSTITUTE, INC., priority 2018, dated 2025).
